US6448030B1, “Method for predicting the efficacy of anti-cancer drugs” (University of Nevada-Las Vegas, priority 2000, dated 2002)

Legend:
[1] = test system: human breast cancer cells; test: Chemotactic migration of breast cancer cells towards serum in a migration plate, migrated cells labeled with calcein-AM; format: cell-based; conditions: highly metastatic breast cells; for inhibition at 20 µM: 20 μM drug
Experimental: (§1) After 18 hours, migrated cells were labeled with calcein-AM and fluorescence quantitated from the bottom. Nonmigrated cells were labeled with propidium iodide and fluorescence quantitated from the top. Estimation of 100% cell death was made by lysing cells in a test chamber with 1% Triton X-100 (TX 100) Error bars represent the standard deviation of 4-16 replicate test chambers. Asterisks represent a significant difference from migration without drugs (P<0.05). RFU=relative fluorescence units.
(§2) The cell suspension was added to the first chamber of a migration plate containing 96 chambers per plate at a concentration of about 80,000 cells per chamber. The migration plate used in this assay was manufactured by Polyfiltronics. Similar plates are available from Becton-Dickinson (U.S. Pat No. 5,801,055). The second chamber contained either haptotactic stimulus in the form of 20 μg/ml fibronectin or chemotactic in the form of 5% fetal calf serum. Cells were allowed to migrate in a humidified incubator at 37° C. and 5% carbon dioxide […].
(§3) During the last half hour of the incubation, calcein-AM (Molecular Probes, Eugene, Oreg.) was added to the second chamber to a final concentration of 5 μM and propidium iodide was added to the first chamber to a final concentration of 30 μM. At the end of the incubation the underside of the filters were washed twice in phosphate buffered saline. Fluorescence from each individual well chamber was measured from the bottom using 485 nm excitation and 530 nm emission filters.
(§4) Fluorescence from each individual well chamber was measured from the top using 560 nm excitation and 645 nm emission wavelength filters using a Tecan SpectraFluor fluorescent plate reader (Research Triangle Park NC). […] The asterisks represent a significant difference from positive control (p<0.05).

[2] = test system: human breast cancer cells; test: Haptotactic migration of breast cancer cells towards fibronectin in a migration plate, migrated cells labeled with calcein-AM; format: cell-based; conditions: for inhibition of migration, dose dependence: sublethal concentration
Experimental: as §1, §2, §3, §4

[3] = Homo sapiens, serum stimulus, read-out: inhibition of chemotaxis
[4] = haptotactic and chemotactic migration

**Q.** For `NC(=O)c1nnn(Cc2cc(Cl)c(C(=O)c3ccc(Cl)cc3)c(Cl)c2)c1N` [CAI, carboxyamido-triazole], which inhibition at 10 µM ([1]; Homo sapiens, 10 μM drug, serum stimulus, read-out: inhibition of chemotaxis) is on record?
**A.** 7%

**Q.** What about the inhibition at 20 µM [1, 3] of the same compound?
**A.** 42%

**Q.** What about the “chemotactic migration inhibition relative to concentrations causing cell death” value ([1]; FIGS. 3A, 3B) of the same compound?
**A.** inhibited at lower concentrations than those that cause cell death

**Q.** And the inhibition of haptotaxis ([2]; 20 μM drug, fibronectin stimulus, highly metastatic breast cells)?
**A.** abolished haptotaxis

**Q.** And the inhibition at 10 µM ([2]; Homo sapiens, 10 μM drug, fibronectin stimulus, highly metastatic breast cells, read-out: inhibition of haptotaxis)?
**A.** 32%

**Q.** What about the “effectiveness at halting migration, comparison of the two drugs” value [2, 4] of the same compound?
**A.** more effective than tamoxifen at halting migration

**Q.** And the “inhibition of migration, dose dependence” value [2, 4]?
**A.** inhibited migration in a dose-dependent manner at sublethal concentration

**Q.** And the “haptotactic migration inhibition relative to concentrations causing cell death” value ([2]; highly metastatic breast cells, FIGS. 3A, 3B)?
**A.** inhibited at lower concentrations than those that cause cell death

**Q.** What does the source list for `CC/C(=C(\c1ccccc1)c1ccc(OCCN(C)C)cc1)c1ccccc1` [tamoxifen]?
**A.** inhibition of chemotaxis ([1]; 10 μM drug, serum stimulus): non-significant inhibition; inhibition at 20 µM [1, 3]: 9%; inhibition of haptotaxis ([2]; 10 μM drug, fibronectin stimulus, highly metastatic breast cells): non-significant inhibition; inhibition at 20 µM ([2]; Homo sapiens, 20 μM drug, fibronectin stimulus, highly metastatic breast cells, read-out: inhibition of haptotaxis): 51%; inhibition of migration, dose dependence [2, 4]: inhibited migration in a dose-dependent manner at sublethal concentration
